US5716950A, “Diazacycloalkanealkylsulfonamide derivatives” (Nippon Shoji Kabushiki Kaisha, priority 1994, dated 1998)
Read-outs that look alike come from different tables or passages of the source.

Legend:
[1] = test system: passive cutaneous anaphylaxis (PCA); experiment: Activity of suppressing passive cutaneous anaphylaxis (PCA); format: in vivo, Male Wistar rats
Method: Test compounds were examined on their antiallergic activities. […] After 48 hours, 1.0 ml of 0.5 % Evans Blue saline solution containing DNP.BSA (1 mg in protein) was injected through the tail vein to induce allergic reaction. After 30 minutes, the rats were sacrificed by bleeding and the skin of back where dye was leaked out was flayed and put it into 20 ml test tube with ground stopper. Thereto was added 1.0 ml of 1N KOH aqueous solution and then it was allowed to stand at 37° C. in incubator overnight for lysing. To this solution was added 8.3 ml of a mixture of acetone and 0.6N phosphoric acid (13:5) and the mixture was mixed well and then was filtered to remove the insoluble materials.
The test compounds were administered orally 1 hour before the antigen challenge. Suppression rate was expressed by percentage to the value in control where 0.5% aqueous methylcellulose solution was orally administered.

[2] = test system: male ICR mice; experiment: Toxicity Test (mouse acute toxicity, minimum lethal dose); format: in vivo; settings: po, observed for 24 hours, head prints (10 mg/kg-po)
Description: The test compounds were orally administered to male ICR mice (weighing to 30 g) after fasting overnight. […] The results were expressed by minimum lethal dose. Toxicity of any compounds of the present invention were weaker than that of ketotifen which was a reference compound.

[3] = test system: extracted ileum (histamine contraction); experiment: Antihistaminic activity: suppression of histamine-induced contraction of extracted ileum; design: species or system Female Hartley guinea pig; settings: histamine 3×10^-7 M; guinea pig ileum; 50% suppression of contraction; read-out: anti-His in extracted ileum EC50
Method: Female Hartley guinea pig (weighing 500 to 650 g) were sacrificed and the ileum (length of about 10 to 25 cm) was extracted from the ileocecum to prepare a specimen (length of 3 cm). […] After allowing to stand for 60 minutes to make the specimen stable, a histamine (3×10^-7 M) was applied to the specimen at single application. Contraction of the specimen was determined and recorded using isotonic transducer. After repeating application of a histamine to make the contraction constant, a diluted solution of the test compound was applied. Three minutes after the application, a histamine was then added and an activity of suppressing contraction was examined.

[4] = test system: mouse biphasic allergic dermal reaction; experiment: Mouse Biphasic Allergic Dermal Reaction; format: in vivo, Female Balb/c mice; settings: for inhibition in vivo at 0.1 mg/kg / inhibition in vivo at 1 mg/kg / inhibition in vivo at 3 mg/kg / inhibition in vivo at 10 mg/kg / inhibition in vivo at 30 mg/kg: Mus musculus; for suppression of the late allergic reaction (in words): edema after 24 hours; for suppression of the immediate allergic reaction (in words): edema after 1 hour
Method: Female Balb/c mice (weighing 18 to 25 g) were subjected to passive sensitization by intravenous administration of 1 ml of anti-DNP monoclonal IgE antibody showing 1:1024 of antibody titer. 24 hours after the sensitization, 25 μl of 0.15% dinitrofluorobenzene (DNFB) were applied to both sides of right and left auricles of mouse for inducing allergic reactions. Thickness of auricles were measured using Dial Thickness Gauge before the challenge with DNFB, and 1 and 24 hours after the challenge. And then, increase in thickness of auricles at 1 hour after the challenge (edema caused by immediate allergic reaction) and that at 24 hours after the challenge (edema caused by late allergic reaction) were calculated against the thickness of auricles before the challenge with DNFB, respectively.
Suppression rate was expressed by relative ratio (%) to the value in control in which a solvent was administered.
Test compounds, diphenhydramine which is a existing classical antihistamic drug, amlexanox which is an antiallergic drug and dexamethasone which is a steroidal drug were administered orally (partly intraperitoneally) once before antigen challenge.
The above test was performed by using a mouse biphasic allergic dermal reaction model which was a new model [see, Sakurai T, Inagaki, N. and Nagai, H Life Sci., 54, PL291-295 (1994)]. In this model, the immediate allergic reaction was induced by mediator release from mast cell at 1 hour after the challenge, and the late allergic reaction with inflammatory cells such as eosinophil (edema after 24 hours) was induced after 24 hours from the challenge.

[5] = Rattus norvegicus, po, 1 h, 10 mg/kg-po, 1 hour before antigen challenge, read-out: % suppression of rat PCA
[6] = 1 h, 1.0 mg/kg, oral, read-out: immediate edema (1 hr) suppression (%)
[7] = 24 h, 0.1 mg/kg, oral, read-out: late edema (24 hr) suppression (%)
[8] = 24 h, 1.0 mg/kg, oral, read-out: late edema (24 hr) suppression (%)
[9] = po, 1 h, read-out: immediate edema (1 hr) suppression (%)
[10] = po, 24 h, read-out: late edema (24 hr) suppression (%)

Row | SMILES | inhibition in vivo at 10 mg/kg [1, 5] | EC50 [3] | other results
1 | O=S(=O)(CCCCCCN1CCN(C(c2ccccc2)c2ccc(Cl)cc2)CC1)NCCO (stereo not shown) [Example 101] | 88% | 810 nM | mouse acute toxicity (lethal dose) [2]: > 500 mg/kg
2 | O=S(=O)(CCCCCN1CCN(C(c2ccccc2)c2ccc(Cl)cc2)CC1)NC1CCCC1 (stereo not shown) [Example 136] | 80.2% | 540 nM | mouse acute toxicity (lethal dose) [2]: > 500 mg/kg
3 | O=S(=O)(CCCCCCN1CCN(C(c2ccccc2)c2ccccc2)CC1)NC1CC1 [Example 126] | 80.8% | 300 nM | 
4 | CC(C)NS(=O)(=O)CCCCCN1CCN(C(c2ccccc2)c2ccc(Cl)cc2)CC1 (stereo not shown) [Example 110] | 88.3% | 570 nM | 
5 | O=S(=O)(CCCCN1CCN(C(c2ccccc2)c2ccc(Cl)cc2)CC1)NC1CCCC1 (stereo not shown) [Example 135] | 74.4% | 1100 nM | mouse acute toxicity (lethal dose) [2]: > 500 mg/kg
6 | CN(C)S(=O)(=O)CCCCCCCCN1CCN(C(c2ccccc2)c2ccccc2F)CC1 (stereo not shown) [Example 69] | 88.3% | 150 nM | mouse acute toxicity (lethal dose) [2]: > 500 mg/kg
7 | CN(C)S(=O)(=O)CCCCCCN1CCN(C(c2ccccc2)c2ccc(Cl)cc2)CC1 (stereo not shown) [Example 64] | 72.5% | 360 nM | mouse acute toxicity (lethal dose) [2]: > 500 mg/kg
8 | O=S(=O)(CCCCN1CCN(C(c2ccccc2)c2ccc(Cl)cc2)CC1)NC1CC1 (stereo not shown) [Example 113] | 87.5% | 710 nM | 
9 | C[C@@H]1C[C@H]2[C@@H]3CCC4=CC(=O)C=C[C@]4(C)[C@@]3(F)[C@@H](O)C[C@]2(C)[C@@]1(O)C(=O)CO [dexamethasone, reference compound] |  |  | inhibition in vivo at 0.1 mg/kg ([4]; ip, 1 h, 0.1 mg/kg (i.p.), read-out: immediate edema (1 hr) suppression (%)): 32.4%; inhibition in vivo at 1 mg/kg ([4]; ip, 1 h, dexamethasone 1.0 mg/kg, (i.p.) printed only at the 0.1 line, read-out: immediate edema (1 hr) suppression (%)): 32.4%; inhibition in vivo at 3 mg/kg ([4]; ip, 1 h, dexamethasone 3.0 mg/kg, (i.p.) printed only at the 0.1 line, read-out: immediate edema (1 hr) suppression (%)): 11.8%; inhibition in vivo at 0.1 mg/kg ([4]; ip, 24 h, 0.1 mg/kg (i.p.), read-out: late edema (24 hr) suppression (%)): 34.3%; inhibition in vivo at 1 mg/kg ([4]; ip, 24 h, dexamethasone 1.0 mg/kg, (i.p.) printed only at the 0.1 line, read-out: late edema (24 hr) suppression (%)): 42.9%; inhibition in vivo at 3 mg/kg ([4]; ip, 24 h, dexamethasone 3.0 mg/kg, (i.p.) printed only at the 0.1 line, read-out: late edema (24 hr) suppression (%)): 45.7%; suppression of the late allergic reaction (in words) [4]: showed the strong activity of suppressing the late allergic reaction
10 | O=S(=O)(CCCCCCN1CCN(C(c2ccccc2)c2ccccc2)CC1)NC1CCCC1 [Example 141] | 87.4% | 210 nM | 
11 | O=S(=O)(CCCCCCN1CCN(C(c2ccccc2)c2ccccn2)CC1)NC1CC1 (stereo not shown) [Example 123] | 83.5% | 330 nM | 
12 | O=S(=O)(CCCCCCCCN1CCN(C(c2ccc(F)cc2)c2ccccn2)CC1)NC1CC1 (stereo not shown) [Example 57] | 90.6% | 390 nM | inhibition in vivo at 1 mg/kg [4, 6]: 31.6%; inhibition in vivo at 0.1 mg/kg [4, 7]: 7.7%; inhibition in vivo at 1 mg/kg [4, 8]: 46.2%; suppression of the late allergic reaction (in words) [4]: showed strong activity of suppressing the late allergic reaction
13 | NS(=O)(=O)CCCCCCN1CCN(C(c2ccccc2)c2ccc(Cl)cc2)CC1 (stereo not shown) [Example 153, potassium 6-[[4-(4-chlorophenyl)phenylmethyl]-1-piperazinyl]hexylsulfonamide] |  |  | % suppression of rat PCA ([1]; 10 mg/kg-po, 1 hour before antigen challenge): 86.2%; mouse acute toxicity (lethal dose) [2]: > 500 mg/kg; inhibition in vivo at 0.1 mg/kg ([4]; 1 h, 0.1 mg/kg, oral, read-out: immediate edema (1 hr) suppression (%)): 24%; inhibition in vivo at 1 mg/kg [4, 6]: 56%; inhibition in vivo at 0.1 mg/kg [4, 7]: 24%; inhibition in vivo at 1 mg/kg [4, 8]: 48%
14 | O=S(=O)(CCCCCCN1CCN(C(c2ccccc2)c2ccccc2)CC1)NC1CCC1 [Example 134] | 87.1% | 580 nM | 
15 | CCNS(=O)(=O)CCCCCCCCN1CCN(C(c2ccc(F)cc2)c2ccccn2)CC1 (stereo not shown) [Example 34] | 84.8% | 330 nM | 
16 | O=S(=O)(CCCCCN1CCN(C(c2ccccc2)c2ccc(Cl)cc2)CC1)NC1CC1 (stereo not shown) [Example 114] | 83.5% | 560 nM | 
17 | O=S(=O)(CCCCCCN1CCN(C(c2ccccc2)c2ccccc2)CC1)NC1CCCCC1 [Example 149] | 97.7% | 310 nM | 
18 | CNS(=O)(=O)CCCCCN1CCN(C(c2ccccc2)c2ccccc2)CC1 [Example 19] | 78% | 460 nM | 
19 | CN(C)CCOC(c1ccccc1)c1ccccc1 [diphenhydramine, reference compound] |  |  | inhibition in vivo at 3 mg/kg ([4]; 1 h, 3.0 mg/kg, oral, read-out: immediate edema (1 hr) suppression (%)): 17.8%; inhibition in vivo at 10 mg/kg ([4]; 1 h, 10.0 mg/kg, oral, read-out: immediate edema (1 hr) suppression (%)): 13.3%; inhibition in vivo at 30 mg/kg ([4]; 1 h, 30.0 mg/kg, oral, read-out: immediate edema (1 hr) suppression (%)): 53.3%; inhibition in vivo at 30 mg/kg ([4]; 24 h, 30.0 mg/kg, oral, read-out: late edema (24 hr) suppression (%)): 14.3%; suppression of the immediate allergic reaction (in words) [4]: suppressed the immediate allergic reaction; suppression of the late allergic reaction (in words) [4]: did not suppress the late allergic reaction
20 | CCNS(=O)(=O)CCCCCCCN1CCN(C(c2ccccc2)c2ccc(Cl)cc2)CC1 (stereo not shown) [Example 107] | 87.8% | 620 nM | 
21 | O=S(=O)(CCCCCCCCCCN1CCN(C(c2ccc(F)cc2)c2ccccn2)CC1)NC1CC1 (stereo not shown) [Example 58] | 76.5% | 350 nM | 
22 | CN1CCC(=C2c3ccccc3CC(=O)c3sccc32)CC1 [ketotifen, reference compound] |  |  | inhibition in vivo at 2 mg/kg ([1]; Rattus norvegicus, po, 1 h, read-out: % suppression of rat PCA): 47.4 to 73.6%; mouse acute toxicity (lethal dose) [2]: 500 mg/kg
23 | CN(C)S(=O)(=O)CCCCCCN1CCN(C(c2ccc(F)cc2)c2ccccn2)CC1 (stereo not shown) [Example 82] | 86.8% | 790 nM | 
24 | CN(C)S(=O)(=O)CCCCCCN1CCN(C(c2ccccc2)c2ccc(F)cc2)CC1 (stereo not shown) [Example 68] | 94.5% | 370 nM | 
25 | CCCNS(=O)(=O)CCCCCCN1CCN(C(c2ccccc2)c2ccc(Cl)cc2)CC1 (stereo not shown) [Example 36] | 77.5% | 560 nM | 
26 | O=S(=O)(CCCCCN1CCN(C(c2ccccc2)c2ccc(Cl)cc2)CC1)NC1CCC1 (stereo not shown) [Example 127] | 90.7% | 410 nM | 
27 | CNS(=O)(=O)CCCCCN1CCN(C(c2ccccc2)c2ccc(Cl)cc2)CC1 (stereo not shown) [Example 106] | 90.3% | 400 nM | 
28 | CC(C)c1ccc2oc3nc(N)c(C(=O)O)cc3c(=O)c2c1 [amlexanox, reference compound] |  |  | inhibition in vivo at 3 mg/kg [4, 9]: 38.5%; inhibition in vivo at 10 mg/kg [4, 9]: 38.5%; inhibition in vivo at 30 mg/kg [4, 9]: 50%; inhibition in vivo at 3 mg/kg [4, 10]: 12.1%; inhibition in vivo at 30 mg/kg [4, 10]: 6.1%; suppression of the immediate allergic reaction (in words) [4]: suppressed the immediate allergic reaction; suppression of the late allergic reaction (in words) [4]: did not suppress the late allergic reaction
29 | O=S(=O)(O)CCCCN1CCN(C(c2ccc(F)cc2)c2ccccn2)CC1 (stereo not shown) [Ref. Ex. 4, 4-[4-[4-fluorophenyl-(2-pyridyl)methyl]-1-piperazinyl]butylsulfonic acid, reference compound] | 0% |  | antiallergic activity / activity of suppressing PCA (in words) ([1]; rat, in vivo): did not show an antiallergic activity
